# According to US4292317A, “1,4-Dihydro-quinoline-3-carboxylic acid derivatives, process for their preparation and compositions containing them” (Laboratorie Roger Bellon, priority 1977, dated 1981):
# Like-named read-outs stand apart in the source and are kept apart here.
# Key:
# Escherichia coli P 5101 [1] = experiment: M.I.C. for germ used in experimental infection; type: cell-based; settings: P5101, 18 h
# Description: (§1) After sterilisation at 120° C., the pH was 6.8.
# (§2) The minimum inhibitory concentrations (M.I.C.) were determined by dilution of the test compounds in this mixture, the concentration ranging from 0.05 to 100 μg/cm^3 in a geometric progression with a factor of 2.
# (§3) The inoculation of the dishes was carried out by means of a multiple inoculator with 10^-3 dilutions of 18 hour old broth cultures.
# (§4) The dishes were placed in an oven at 37° C. and the readings were taken afer an incubation time of 18 hours. The M.I.C. was taken as the lowest concentration which inhibited a culture.
# Strept. pyogenes A. 65 [2] = experiment: M.I.C. for germ used in experimental infection; type: cell-based; settings: Streptococcus pyogenes
# Description: as §1, §2, §3, §4
# Staph. aureus 50,774 [3] = experiment: M.I.C. for germ used in experimental infection; type: cell-based; settings: Staphylococcus aureus, 18 h
# Description: as §1, §2, §3, §4
# [4] = test system: Pseudomonas aeruginosa No. 12; experiment: M.I.C. for germ used in experimental infection; type: cell-based
# Description: as §1, §2, §3, §4
# Pr. vulgaris 12-53 = experiment: M.I.C. in vitro, nutrient agar dilution; type: cell-based; settings: Proteus vulgaris, 1253, 18 h
# Procedure, shortened: (§5)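 Inhibition is scored visually as the lowest inhibitory concentration. Dishes contain compound serially halved from 100 to 0.05 μg/cm^3 in pH 6.8 medium, receive a multiple-inoculator spot of 10^-3 diluted 18 h broth culture, and incubate at 37° C. for 18 hours.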
# Esch. coli 54.127 O.M.S. = experiment: M.I.C. in vitro, nutrient agar dilution; type: cell-based; settings: Escherichia coli, 18 h
# Procedure, shortened: as §5
# Esch. coli 95 I.S.M. = experiment: M.I.C. in vitro, nutrient agar dilution; type: cell-based; settings: Escherichia coli, 18 h
# Procedure, shortened: as §5
# Arizona 6.211 = experiment: M.I.C. in vitro, nutrient agar dilution; type: cell-based; settings: 18 h
# Procedure, shortened: as §5
# Pr. morganii A.236 = experiment: M.I.C. in vitro, nutrient agar dilution; type: cell-based; settings: Morganella morganii
# Procedure, shortened: as §5
# Strepto D.M. 19 = experiment: M.I.C. in vitro, nutrient agar dilution; type: cell-based; settings: 18 h
# Procedure, shortened: as §5
# S. enteritidis Danysz = experiment: M.I.C. in vitro, nutrient agar dilution; type: cell-based; settings: Salmonella enterica, 18 h
# Procedure, shortened: as §5
# Staph. 9.144 = experiment: M.I.C. in vitro, nutrient agar dilution; type: cell-based; settings: 18 h
# Procedure, shortened: as §5
# Ps. aeruginosa 72.345 = experiment: M.I.C. in vitro, nutrient agar dilution; type: cell-based
# Procedure, shortened: as §5
# B. subtilis = experiment: M.I.C. in vitro, nutrient agar dilution; type: cell-based; settings: Bacillus subtilis, 18 h
# Procedure, shortened: as §5
# Esch. coli 111 B4 = experiment: M.I.C. in vitro, nutrient agar dilution; type: cell-based; settings: Escherichia coli, 18 h; Table III; Esch. coli 111 B4
# Procedure, shortened: as §5
# Klebs. pneum. 10.031 = experiment: M.I.C. in vitro, nutrient agar dilution; type: cell-based; settings: 18 h
# Procedure, shortened: as §5
# Serratia = experiment: M.I.C. in vitro, nutrient agar dilution; type: cell-based; settings: 18 h
# Procedure, shortened: as §5
# Strepto A 561 = experiment: M.I.C. in vitro, nutrient agar dilution; type: cell-based; settings: 18 h; Table III; Strepto A 561
# Procedure, shortened: as §5
# S. oranienburg 1066 = experiment: M.I.C. in vitro, nutrient agar dilution; type: cell-based
# Procedure, shortened: as §5
# Bord. bronchis. 4.617 = experiment: M.I.C. in vitro, nutrient agar dilution; type: cell-based; settings: 18 h
# Procedure, shortened: as §5
# Ps. aeruginosa A.22 = experiment: M.I.C. in vitro, nutrient agar dilution; type: cell-based; settings: Pseudomonas aeruginosa
# Procedure, shortened: as §5
# Sh. sonnei I.P.S. = experiment: M.I.C. in vitro, nutrient agar dilution; type: cell-based; settings: Shigella sonnei, 18 h; Table III; Sh. sonnei I.P.S.; read-out: M.I.C.
# Procedure, shortened: as §5
# Providentia 0223 = experiment: M.I.C. in vitro, nutrient agar dilution; type: cell-based; settings: 18 h
# Procedure, shortened: as §5
# Pr. mirabilis Nig = experiment: M.I.C. in vitro, nutrient agar dilution; type: cell-based; settings: Proteus mirabilis, 18 h
# Procedure, shortened: as §5
# Staph. 209 P = experiment: M.I.C. in vitro, nutrient agar dilution; type: cell-based; settings: 18 h
# Procedure, shortened: as §5
# in vivo = settings: mouse, mice
# Escherichia coli P 5101 [5] = experiment: Systemic infection in mice; type: in vivo; settings: P5101, po, 168 h
# Description: (§6) The activity of the compounds according to the invention against systemic infections in mice, caused by Staphylococcus 50,774, Streptococcus pyogenes A 65, Pseudomonas aeruginosa No. 12 and Escherichia coli P 5101, has been studied.
# (§7) The infections were set up by intraperitoneal injection of a suspension of the bacterial culture corresponding to the germ studied. The products were administered orally at the time of injection, and 6 hours later. […] Aureus and for 7 days for the other germs.
# (§8) Oxolinic acid was used as the reference substance.
# Strept. pyogenes A. 65 [6] = experiment: Systemic infection in mice; type: in vivo; settings: Streptococcus pyogenes, 168 h
# Description: as §6, §7, §8
# Staph. aureus 50,774 [7] = experiment: Systemic infection in mice; type: in vivo; settings: Staphylococcus aureus, po, 336 h
# Description: as §6, §7, §8
# [8] = test system: Pseudomonas aeruginosa No. 12; experiment: Systemic infection in mice; type: in vivo; settings: 168 h
# Description: as §6, §7, §8
# Salm. typhi 0901 = experiment: microbe, parasite or virus in culture; type: cell-based; settings: Salmonella enterica, 18 h; Table III; Salm. typhi 0901
# Procedure, shortened: as §5
smiles,measurement,setting,value
"C=CCN1CCN(c2cc3c(cc2F)c(=O)c(C(=O)O)cn3CC)CC1 [Example 23, 7-(4-Allylpiperazinyl)-1-ethyl-6-fluoro-4-oxo-1,4-dihydro-quinoline-3-carboxylic acid]",MIC,"Escherichia coli P 5101 [1]; Table 4, E. coli P 5101, read-out: M.I.C.",0.39 µg/mL
same,MIC,"Strept. pyogenes A. 65 [2]; 18 h, Table 4, Strept. pyogenes A. 65, read-out: M.I.C.",3.13 µg/mL
same,MIC,"Staph. aureus 50,774 [3]; Table 4, Staph. aureus 50,774, read-out: M.I.C.",0.39 µg/mL
same,MIC,"[4]; 18 h, Table 4, P. aeruginosa No. 12, read-out: M.I.C.",6.25 µg/mL
same,MIC,"Pr. vulgaris 12-53; Table III, Pr. vulgaris 12-53, read-out: M.I.C.",0.2 to 0.4 µg/mL
same,MIC,"Esch. coli 54.127 O.M.S.; Table III, Esch. coli 54.127 O.M.S., read-out: M.I.C.",0.1 to 0.8 µg/mL
same,MIC,"Esch. coli 95 I.S.M.; Table III, Esch. coli 95 I.S.M., read-out: M.I.C.",0.1 to 0.4 µg/mL
same,MIC,"Arizona 6.211; Table III, Arizona 6.211, read-out: M.I.C.",0.2 to 0.8 µg/mL
same,MIC,"Pr. morganii A.236; 18 h, Table III, Pr. morganii A. 236, read-out: M.I.C.",0.2 µg/mL
same,MIC,"Strepto D.M. 19; Table III, Strepto D.M. 19, read-out: M.I.C.",0.8 to 3.15 µg/mL
same,MIC,"S. enteritidis Danysz; Table III, S. enteritidis Danysz, read-out: M.I.C.",0.4 µg/mL
same,MIC,"Staph. 9.144; Table III, Staph. 9.144, read-out: M.I.C.",0.2 µg/mL
same,MIC,"Ps. aeruginosa 72.345; Pseudomonas aeruginosa, 18 h, Table III, Pd. aeruginosa 72.345, read-out: M.I.C.",3.12 µg/mL
same,MIC,"B. subtilis; Table III, B. Subtilis, read-out: M.I.C.",0.1 to 0.2 µg/mL
same,MIC,Esch. coli 111 B4,0.2 to 0.8 µg/mL
same,MIC,"Klebs. pneum. 10.031; Table III, Klebs. pneum. 10.031, read-out: M.I.C.",0.1 to 0.2 µg/mL
same,MIC,"Serratia; Table III, read-out: M.I.C.",0.025 µg/mL
same,MIC,Strepto A 561,1.6 to 6.2 µg/mL
same,MIC,"S. oranienburg 1066; Salmonella enterica, 18 h, Table III, S. oranienburg 1066, read-out: M.I.C.",6.2 to 12.5 µg/mL
same,MIC,"Bord. bronchis. 4.617; Table III, Bord. bronchis. 4.617, read-out: M.I.C.",3.12 µg/mL
same,MIC,"Ps. aeruginosa A.22; 18 h, Table III, Ps. aeruginosa A.22, read-out: M.I.C.",1.6 to 3.12 µg/mL
same,MIC,Sh. sonnei I.P.S.,0.1 to 0.2 µg/mL
same,MIC,"Providentia 0223; Table III, Providentia 0223, read-out: M.I.C.",1.6 to 6.2 µg/mL
same,MIC,"Pr. mirabilis Nig; Table III, Pr. mirabilis Nig, read-out: M.I.C.",0.4 to 0.8 µg/mL
same,MIC,"Staph. 209 P; Table III, Staph. 209 P, read-out: M.I.C.",0.1 to 0.2 µg/mL
same,LD50,in vivo; iv,177 mg/kg
same,LD50,in vivo; po,> 2000 mg/kg
same,ED50,"Escherichia coli P 5101 [5]; mice, p.o. at infection and 6 hours later, E. coli P 5101, 7 days, read-out: ED50",2.9 mg/kg
same,ED90,"Escherichia coli P 5101 [5]; mice, p.o. at infection and 6 hours later, E. coli P 5101, 7 days, read-out: ED90",5.2 mg/kg
same,ED50,"Strept. pyogenes A. 65 [6]; po, mice, p.o. at infection and 6 hours later, Strept. pyogenes A. 65, 7 days, read-out: ED50",64.7 mg/kg
same,ED90,"Strept. pyogenes A. 65 [6]; po, mice, p.o. at infection and 6 hours later, Strept. pyogenes A. 65, 7 days, read-out: ED90",130 mg/kg
same,ED50,"Staph. aureus 50,774 [7]; mice, p.o. at infection and 6 hours later, Staph. aureus 50,774, 14 days, read-out: ED50",5.2 mg/kg
same,ED90,"Staph. aureus 50,774 [7]; mice, p.o. at infection and 6 hours later, Staph. aureus 50,774, 14 days, read-out: ED90",17 mg/kg
same,ED50,"[8]; po, mice, p.o. at infection and 6 hours later, P. aeruginosa No. 12, 7 days, read-out: ED50",13.3 mg/kg
same,ED90,"[8]; po, mice, p.o. at infection and 6 hours later, P. aeruginosa No. 12, 7 days, read-out: ED90",26.9 mg/kg
same,MIC,Salm. typhi 0901,0.1 to 0.4 µg/mL
"CCn1cc(C(=O)O)c(=O)c2cc3c(cc21)OCO3 [Oxolinic acid, oxolinic acid, reference compound]",MIC,Escherichia coli P 5101 [1],0.2 µg/mL
same,MIC,"Strept. pyogenes A. 65 [2]; A.65, 18 h",100 µg/mL
same,MIC,"Staph. aureus 50,774 [3]",1.56 µg/mL
same,MIC,"[4]; NO.12, 18 h",12.5 µg/mL
same,MIC,Pr. vulgaris 12-53,0.05 µg/mL
same,MIC,Esch. coli 54.127 O.M.S.; 54.127O.M.S.,0.4 µg/mL
same,MIC,Esch. coli 95 I.S.M.; 95I.S.M.,0.1 µg/mL
same,MIC,Arizona 6.211,0.4 µg/mL
same,MIC,"Pr. morganii A.236; A.236, 18 h",0.1 µg/mL
same,MIC,Strepto D.M. 19,25 µg/mL
same,MIC,S. enteritidis Danysz; ENTERITIDIS,0.8 µg/mL
same,MIC,Staph. 9.144,0.8 µg/mL
same,MIC,"Ps. aeruginosa 72.345; Pseudomonas aeruginosa, 72.345, 18 h",6.2 µg/mL
same,MIC,B. subtilis,0.1 µg/mL
same,MIC,Esch. coli 111 B4,0.4 µg/mL
same,MIC,Klebs. pneum. 10.031,0.1 µg/mL
same,MIC,Serratia,0.8 µg/mL
same,MIC,"S. oranienburg 1066; Salmonella enterica, 1066, 18 h",25 µg/mL
same,MIC,Bord. bronchis. 4.617,3.1 µg/mL
same,MIC,"Ps. aeruginosa A.22; A.22, 18 h",12.5 µg/mL
same,MIC,Sh. sonnei I.P.S.,0.2 µg/mL
same,MIC,Providentia 0223,25 µg/mL
same,MIC,Pr. mirabilis Nig,0.4 µg/mL
same,MIC,Staph. 209 P,0.8 µg/mL
same,LD50,in vivo; iv,177 mg/kg
same,LD50,in vivo; po,> 2000 mg/kg
same,ED50,Escherichia coli P 5101 [5],17 mg/kg
same,ED90,Escherichia coli P 5101 [5],45.1 mg/kg
same,ED50,"Strept. pyogenes A. 65 [6]; A.65, po",> 100 mg/kg
same,ED90,"Strept. pyogenes A. 65 [6]; A.65, po",> 100 mg/kg
same,ED50,"Staph. aureus 50,774 [7]",53.2 mg/kg
same,ED90,"Staph. aureus 50,774 [7]",111 mg/kg
same,ED50,"[8]; NO.12, po",70.1 mg/kg
same,ED90,"[8]; NO.12, po",142 mg/kg
same,MIC,Salm. typhi 0901,0.4 µg/mL
